IC50 data for 22 compounds are collected here from patent US20260355196A1, “INHIBITORS AND DEGRADERS OF PIP4K PROTEIN” (Larkspur Biosciences, Inc., priority 2023, published 2026).

The structures appear in SMILES notation. pIC50: −log10 of the molar value.

In this test the target is T1, PIP4K2C (Homo sapiens, UniProt Q8TBX8).
T1 sequence (Q8TBX8 1-421): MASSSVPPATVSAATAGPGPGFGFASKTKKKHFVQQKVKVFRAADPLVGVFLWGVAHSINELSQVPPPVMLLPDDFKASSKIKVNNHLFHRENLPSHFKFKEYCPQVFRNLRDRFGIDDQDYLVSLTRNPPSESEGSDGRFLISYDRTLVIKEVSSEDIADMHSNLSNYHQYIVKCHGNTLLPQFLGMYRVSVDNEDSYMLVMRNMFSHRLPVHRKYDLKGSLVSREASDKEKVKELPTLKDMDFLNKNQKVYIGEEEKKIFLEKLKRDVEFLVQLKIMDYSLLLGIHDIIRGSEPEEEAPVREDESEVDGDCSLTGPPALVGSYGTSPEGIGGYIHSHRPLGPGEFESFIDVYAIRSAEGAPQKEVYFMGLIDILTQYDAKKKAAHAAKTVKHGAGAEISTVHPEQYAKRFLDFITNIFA
As to the kind of experiment: Enzyme Binding Assay (KINOMEscan): active site-directed competition binding to an immobilized ligand. Further details: purchased Eurofins DiscoverX, San Diego, CA 87-0007-1094. The settings on record: 11-point dose response, duplicate, top concentration 5 micromolar; read-out: Pip4k2c Kd: IC50. As to the method: Example B-1: Enzyme Binding Assays (KINOMEscan)
PIP4K2C binding constants disclosed herein were determined using the proprietary Human PIP4K2C binding assay (Catalog number 87-0007-1094, Eurofins DiscoverX, San Diego, CA). This assay measures active site-directed competition binding to an immobilized ligand (see https://doi.org/10.1038/nbt1068, herein incorporated by reference in its entirety). Experiments were conducted using an 11-point dose response curve, in duplicate, with a top starting concentration of 5 micromolar; the Levenberg-Marquardt algorithm was used to fit a Hill equation to dose-response data to calculate IC50 values (see Table 5).
On to `NC(=O)[C@@H]1CCC[C@H](Nc2ncc(F)c(-c3ccc(=O)n(-c4ccc(F)cc4)c3)n2)C1` (relative stereo) [Compound 41, cis-3-((5-fluoro-4-(1-(4-fluorophenyl)-6-oxo-1,6-dihydropyridin-3-yl)pyrimidin-2-yl)amino)cyclohexane-1-carboxamide], for which the negative-log IC50 (pIC50) is above 6.30. With `NC(=O)[C@H]1CCC[C@@H](Nc2ncc(F)c(-c3ccn(-c4ccc(F)cc4)n3)n2)C1` (relative stereo) [Compound 42, cis-3-((5-fluoro-4-(1-(4-fluorophenyl)-1H-pyrazol-3-yl)pyrimidin-2-yl)amino)cyclohexane-1-carboxamide] the figure was 5.30 to 6.00; with `NC(=O)[C@H]1CCC[C@@H](Nc2ncc(F)c(-c3cnn(-c4ccc(F)cc4)c3)n2)C1` (relative stereo) [Compound 43, cis-3-((5-fluoro-4-(1-(4-fluorophenyl)-1H-pyrazol-4-yl)pyrimidin-2-yl)amino)cyclohexane-1-carboxamide], 6.00 to 6.30; with `NC(=O)[C@@H]1CCC[C@H](Nc2ncc(F)c(C3CCCN(c4ccc(F)cc4)C3)n2)C1` (relative stereo) [Compound 91, cis-3-((5-fluoro-4-(1-(4-fluorophenyl)piperidin-3-yl)pyrimidin-2-yl)amino)cyclohexane-1-carboxamide], above 6.30.

As to `NC(=O)[C@@H]1CCC[C@H](Nc2ncc(F)c(-c3cccc(-c4cccc(=O)[nH]4)c3)n2)C1` (relative stereo) [Compound 112, cis-3-((5-fluoro-4-(3-(6-oxo-1,6-dihydropyridin-2-yl)phenyl)pyrimidin-2-yl)amino)cyclohexane-1-carboxamide], the pIC50 is above 6.30. Under `NC(=O)[C@@H]1CCC[C@H](Nc2ncc(F)c(-c3ccn(C4CCCCC4)n3)n2)C1` (relative stereo) [Compound 113, cis-3-((4-(1-cyclohexyl-1H-pyrazol-3-yl)-5-fluoropyrimidin-2-yl)amino)cyclohexane-1-carboxamide] stands 5.30 to 6.00; under `NC(=O)[C@H]1CCC[C@@H](Nc2ncc(Cl)c(C3CCN(C(=O)c4ccc(F)cc4)C3)n2)C1` (relative stereo) [Compound 135, cis-3-((5-chloro-4-(1-(4-fluorobenzoyl)pyrrolidin-3-yl)pyrimidin-2-yl)amino)cyclohexane-1-carboxamide], above 6.30. For `NC(=O)[C@@H]1CCC[C@H](Nc2ncc(Cl)c(-c3cccc(-n4ccccc4=O)c3)n2)C1` (relative stereo) [Compound 136, cis-3-((5-chloro-4-(3-(2-oxopyridin-1 (2H)-yl)phenyl)pyrimidin-2-yl)amino)cyclohexane-1-carboxamide], the pIC50 is above 6.30.

As to `NC(=O)[C@@H]1CCC[C@H](Nc2ncc(F)c(-c3cccc(-c4ccc[nH]c4=O)c3)n2)C1` (relative stereo) [Compound 150, cis-3-((5-fluoro-4-(3-(2-oxo-1,2-dihydropyridin-3-yl)phenyl)pyrimidin-2-yl)amino)cyclohexane-1-carboxamide], the negative logarithm of the IC50 (pIC50) was above 6.30. With `NC(=O)[C@H]1CCC[C@@H](Nc2ncc(F)c(-c3cccc(C4COC4)c3)n2)C1` (relative stereo) [Compound 170, cis-3-((5-fluoro-4-(3-(oxetan-3-yl)phenyl)pyrimidin-2-yl)amino)cyclohexane-1-carboxamide] the figure was above 6.30; with `NC(=O)[C@H]1CCC[C@@H](Nc2ncc(F)c(-c3cccc(C4(O)COC4)c3)n2)C1` (relative stereo) [Compound 173, cis-3-((5-fluoro-4-(3-(3-hydroxyoxetan-3-yl)phenyl)pyrimidin-2-yl)amino)cyclohexane-1-carboxamide], above 6.30. Under `CC(C)(O)c1cc(-c2nc(N[C@@H]3CCC[C@H](C(N)=O)C3)ncc2F)ccn1` (relative stereo) [Compound 177, cis-3-((5-fluoro-4-(2-(2-hydroxypropan-2-yl)pyridin-4-yl)pyrimidin-2-yl)amino)cyclohexane-1-carboxamide] stands above 6.30; under `CC(=O)N1CCCC(c2cccc(-c3nc(N[C@@H]4CCC[C@H](C(N)=O)C4)ncc3F)c2)C1` (relative stereo) [Compound 178, cis-3-((4-(3-(1-acetylpiperidin-3-yl)phenyl)-5-fluoropyrimidin-2-yl)amino)cyclohexane-1-carboxamide], above 6.30; under `NC(=O)[C@H]1CCC[C@@H](Nc2ncc(F)c(-c3cccc(-c4cc[nH]c(=O)c4)c3)n2)C1` (relative stereo) [Compound 200, cis-3-((5-fluoro-4-(3-(2-oxo-1,2-dihydropyridin-4-yl)phenyl)pyrimidin-2-yl)amino)cyclohexane-1-carboxamide], above 6.30. With `NC(=O)[C@H]1CCC[C@@H](Nc2ncc(F)c(-c3cccc(N4CCCOC4=O)c3)n2)C1` (relative stereo) [Compound 227, cis-3-((5-fluoro-4-(3-(2-oxo-1,3-oxazinan-3-yl)phenyl)pyrimidin-2-yl)amino)cyclohexane-1-carboxamide] the figure was above 6.30; with `NC(=O)[C@@H]1CCC[C@H](Nc2ncc(F)c(-c3cccc(N4CCOCC4=O)c3)n2)C1` (relative stereo) [Compound 269, cis-3-((5-fluoro-4-(3-(3-oxomorpholino)phenyl)pyrimidin-2-yl)amino)cyclohexane-1-carboxamide], above 6.30; with `NC(=O)[C@@H]1CCC[C@H](Nc2ncc(F)c(-c3cccc(N4CCOCC4=O)n3)n2)C1` (relative stereo) [Compound 627, cis-3-((5-fluoro-4-(6-(3-oxomorpholino)pyridin-2-yl)pyrimidin-2-yl)amino)cyclohexane-1-carboxamide], above 6.30. For the compound `NC(=O)[C@@H]1CCC[C@H](Nc2ncc(F)c(-c3ccnc(N4CCOCC4=O)c3)n2)C1` (relative stereo) [Compound 629, cis-3-((5-fluoro-4-(2-(3-oxomorpholino)pyridin-4-yl)pyrimidin-2-yl)amino)cyclohexane-1-carboxamide], the pIC50 was above 6.30. For `NC(=O)C1CCC(Nc2ncc(Cl)c(-c3cccc(-c4ccccc4)c3)n2)CC1` (stereo not shown) [Compound 1, 4-((4-([1,1′-biphenyl]-3-yl)-5-chloropyrimidin-2-yl)amino)cyclohexane-1-carboxamide], the pIC50 is 6.00 to 6.30.

Turning to `O=C(C1CCNCC1)N1CCC(Nc2ncc(Cl)c(-c3cccc(-c4ccccc4)c3)n2)CC1` [Compound 2, (4-((4-([1,1′-biphenyl]-3-yl)-5-chloropyrimidin-2-yl)amino)piperidin-1-yl)(piperidin-4-yl)methanone], the negative logarithm of the IC50 (pIC50) was above 6.30. Under `CN1CCC(C(=O)N2CCC(Nc3ncc(Cl)c(-c4cccc(-c5ccccc5)c4)n3)CC2)CC1` [Compound 3, (4-((4-([1,1′-biphenyl]-3-yl)-5-chloropyrimidin-2-yl)amino)piperidin-1-yl)(1-methylpiperidin-4-yl)methanone] stands above 6.30. With `CC(=O)N1CCC(C(=O)N2CCC(Nc3ncc(Cl)c(-c4cccc(-c5ccccc5)c4)n3)CC2)CC1` [Compound 4, 1-(4-(4-((4-([1,1′-biphenyl]-3-yl)-5-chloropyrimidin-2-yl)amino)piperidine-1-carbonyl)piperidin-1-yl)ethan-1-one] the figure was above 6.30.
